Data taken from patent US12371453B2, “Polypeptide having antibacterial activity, composition for preventing or treating sepsis comprising same, and antibacterial composition” (priority 2019, dated 2025).
≈ marks a conversion by molar mass, not a printed value. Square brackets hold non-standard residues; d marks the D form. Ends that are not written are not given here. Peptide text beside a SMILES is read from it.

What was measured:
[1] = LPS binding affinity by Isothermal Titration Calorimeter (ITC); parameters: species or system E. coli K1; details: for LPS binding affinity (in words): compared with FP1 (wild type, WT); for Kd: peptide binding to LPS, read-out: Kd (calculated by ITC)
From the text: FPT (ADK 44-54) is denoted by wild type (WT), and peptides in which a point mutation occurred at various sites in WT were manufactured (FP3, FP5, FP6, and FP9). To increase the interaction with LPS in a residue sequence of FP3, peptides were designed based on FP3- and LPS-binding models (FP12-NH2 and FP13-NH2), and peptides were designed by additionally introducing a non-natural amino acid and an amino acid isomer (allomeric D-type amino acid) (allD FP12-NH2, allD FP13-NH2, allD FP-13-9a, allD FP-13-9w, allD FP-13-9k, and allD FP13-NH2 (AcOH)). In addition, an N-terminus PEGylated peptide (PEG-alld FP13-NH2 (AcOH)) was additionally designed, synthesized, and provided by ANYGEN, Co. Ltd. The binding affinity between each of the provided peptides and lipopolysaccharide (LPS) was confirmed through measuring the binding affinity (Kd) using Isothermal Titration Calorimeter (ITC).
Specifically, a method of analyzing binding affinity (Kd) between a peptide and LPS is as follows.
Measurement was carried out using a Malvern MicroCal PEAQ-ITC cell instrument, and the following pretreatment was carried out to confirm interaction with LPS. The amount and morphology of a sample cell are 300 μL and coin-shaped, fixed-in-place, respectively; a syringe rotation rate was 1,200 rpm; and a temperature was 30° C., 35° C. or 25° C.
Before the experiment, LPS and the peptide were previously diluted with PBS, thereby preparing 2 mM LPS and 0.2 mM peptide. 300 μL of the peptide was added into cells in the ITC instrument, which had been washed, and 40 μL of LPS was put into a syringe. After measurement conditions for ITC (temperature, number of injections) were set, the syringe was inserted into the cell, and ITC measurement was started. When the measurement was completed, analysis is performed, and the Kd values of LPS and the peptide were calculated.

CR-Klebsiella pneumoniae = details: CR-
Method: (§1) The antibacterial activity was evaluated according to an antibacterial activity test method for measuring the minimum inhibitory concentration 50 (MIC50; the minimal concentration that kills 50% of bacteria).
(§2) More specifically, 100 μL of a medium was dispensed into each well of a 96-well plate, and in the first column, an antibiotic and a peptide in 200 μL of the medium were dispensed. 1/2 serial dilution was performed from columns 1 to 11 and five types of antibiotic-resistant bacteria (ESBL-resistant E. coli, carbapenem-resistant A. baumannii, carbapenem-resistant Klebsiella pneumoniae, carbapenem-resistant Pseudomonas aeruginosa, colistin-resistant Acinetobactor baumannii), which had been previously cultured, were diluted (OD600 nm value in dilution: approximately 0.0025) and dispensed into each well. The plate was incubated in a 37° C. incubator for 4 hours, and measured at OD600 nm.

[2] = test system: Colistin resistant AB (Acinetobactor baumannii)
Method: as §1, §2

ESBL (E. coli) = details: ESBL
Method: as §1, §2

[3] = test system: Carbapenem resistant (CR)-Acinetobactor baumannii; assay: organism not typed
Method: as §1, §2

[4] = Calcein dye leakage from liposome mimicking gram-negative bacterial cell membrane; type: biochemical; details: calcein-encapsulated liposome
Method: (§3) To study an action mechanism for FP12-NH2, FP13-NH2, allD FP12-NH2, and allD FP13-NH2 peptides, the disruption ability of the peptides against liposomes mimicking a bacterial cell membrane and a red blood cell membrane was measured.
(§4) EYPG is an abbreviation for egg yolk L-α-phosphatidyl-DL-glycerol, and EYPC is an abbreviation for egg yolk 1,2-diacyl-sn-glycero-3-phosphocholine. CH is an abbreviation for cholesterol. After dissolving the phospholipids composed according to the content of each component in chloroform, the chloroform was removed using a rotary evaporator, and lyophilization was performed overnight. Afterward, the dried lipid film was dissolved in a Tris-buffer solution, and calcein […]. After repeated freezing and thawing, the calcein-encapsulated liposome was manufactured using an extruder. Subsequently, after an excitation wavelength of a spectrofluorimeter (Shimadzu RF 5301 PC spectrofluorimeter, Japan) was set to 490 nm, and an emission wavelength was set to 520 nm, the peptide was administered to the liposome to measure relative dye leakage, provided that a 100% dye leakage was expressed as fluorescence intensity when 0.010% Triton-X100 was added.
(§5) The upper graphs of FIG. 3 show the % dye leakage for an EYPC/EYPG (7:3, w/w) liposome mimicking bacterial cells, encapsulating a fluorescent dye, calcein, by a peptide according to a peptide concentration. […] The lower graphs of FIG. 3 show the % dye leakage for an EYPC/CH (10:1, w/w) liposome, which is […] mimicking a human red blood, encapsulating a fluorescent dye, calcein, by a peptide according to a peptide concentration.

[5] = Calcein dye leakage from liposome mimicking human red blood cell membrane; type: biochemical; details: calcein-encapsulated liposome
Method: as §3, §4, §5

[6] = Calcein dye leakage from liposome mimicking gram-positive bacterial cell membrane; type: biochemical; details: calcein-encapsulated liposome
Method: To study the action mechanisms for FPT2-NH2, FPT3-NH2, allD FPT2-NH2, and allD FP13-NH2 peptides, the disruption ability of the peptides against a liposome mimicking a bacterial cell membrane was measured.

E. coli = type: cell-based
A. baumannii = type: cell-based
[7] = test system: trypsin, protease K, and chymotrypsin; details: read out by antibacterial activity
[8] = In vivo toxicity, survival rate (Example 9); parameters: species or system ICR mice; details: mouse, ip, mice, intraperitoneal six times, survival for 72 hours
Method: To confirm the therapeutic and pharmaceutical effects of an acetate salt substitution of allD FP13-NH2, a septic animal model induced by intraperitoneally administering each of the Escherichia coli (standard strain and ESBL) strains or a normal mouse was treated with the peptide allD FP13-NH2 (AcOH). The antibiotic effect, the toxicity, and the inhibitory activity of […] cytokine IL-6 of the salt substitution with those of the same peptide at the end of trifluoroacetic acid (TFA) were compared.
Six-week-old female ICR mice (SPF mice, Samtako) with an average body weight of 25 g were used as experimental animals. The experimental animals were provided with sterile feed and water and bred with less than 10 mice per cage, and a day/night cycle was 12 hours.
To evaluate in vivo toxicity, the mice were divided into groups (n=5 or 6 per group) per experiment, and intraperitoneally treated six times with allD FP13-NH2 (TFA) and allD FP13-NH2 (AcOH) mixed with […]'S DEX solution (vehicle) at 0, 1, 2, 3, 4, or 5 hours, followed by observing a survival rate at intervals of 12 hours for 72 hours.

Row | Compound | LPS binding affinity (in words) [1] | Kd [1] | MIC50, CR-Klebsiella pneumoniae (CR-Klebsiella pneumoniae) | MIC50, Colistin resistant AB [2] | MIC50, ESBL (E. coli) (ESBL (E. coli)) | MIC50, Carbapenem resistant (CR)-Acinetobactor baumannii [3] | dye leakage, PC/PG (7:3, w/w) liposome mimicking a bacteria cell membrane [4] | dye leakage, PC/CH liposome mimicking a red blood cell membrane [5] | dye leakage, EYPG/EYPC (6:4, w/w) liposome mimicking gram-positive bacterial cell membrane [6] | MIC50 (E. coli) | MIC90 (E. coli) | MIC50 (A. baumannii) | MIC90 (A. baumannii) | MIC50 (S. aureus) | MIC90 (S. aureus) | resistance to the proteolytic enzyme [7] | LD50 [8]
1 | KLRVKLRRYLR-NH2 [FP13-NH2] | strong LPS binding affinity | 118 µM | <16 µg/mL | <32 µg/mL | <1 µg/mL | <8 µg/mL | high dye leakage | almost no dye leakage | high dye leakage | – | – | – | – | – | – | – | –
2 | CC(C)C[C@@H](NC(=O)[C@H](N)CCCNC(=N)N)C(=O)N[C@H](CCCNC(=N)N)C(=O)N[C@@H](C(=O)N[C@H](CCCCN)C(=O)N[C@H](CC(C)C)C(=O)N[C@H](CCCNC(=N)N)C(=O)N[C@H](CCCNC(=N)N)C(=O)N[C@H](Cc1ccc(O)cc1)C(=O)N[C@H](CC(C)C)C(=O)N[C@H](CCCNC(=N)N)C(N)=O)C(C)C [allD FP12-NH2] (H-[dR][dL][dR][dV][dK][dL][dR][dR][dY][dL][dR]-NH2; N-terminus assumed) | strong LPS binding affinity | 26.6 µM | <32 µg/mL | <16 µg/mL | <0.5 µg/mL | <4 µg/mL | high dye leakage | almost no dye leakage | high dye leakage | 2 µM (≈ 3.06 µg/mL) | 4 µM (≈ 6.11 µg/mL) | 4 µM (≈ 6.11 µg/mL) | 8 µM (≈ 12.2 µg/mL) | 4 µM (≈ 6.11 µg/mL) | 8 µM (≈ 12.2 µg/mL) | much improved resistance | –
3 | CC(C)C[C@@H](NC(=O)[C@H](N)CCCCN)C(=O)N[C@H](CCCNC(=N)N)C(=O)N[C@@H](C(=O)N[C@H](CCCCN)C(=O)N[C@H](CC(C)C)C(=O)N[C@H](CCCNC(=N)N)C(=O)N[C@H](CCCNC(=N)N)C(=O)N[C@H](Cc1ccc(O)cc1)C(=O)N[C@H](CC(C)C)C(=O)N[C@H](CCCNC(=N)N)C(N)=O)C(C)C [allD FP13-NH2 (AcOH)] (H-[dK][dL][dR][dV][dK][dL][dR][dR][dY][dL][dR]-NH2; N-terminus assumed) | – | – | <32 µg/mL | <16 µg/mL | <1 µg/mL | <1 µg/mL | – | – | – | – | – | – | – | – | – | – | 80 mg/kg
4 | RLRVKLRRYLR-NH2 [FP12-NH2] | strong LPS binding affinity | 0.242 µM | <8 µg/mL | <16 µg/mL | <0.5 µg/mL | <4 µg/mL | high dye leakage | almost no dye leakage | high dye leakage | – | – | – | – | – | – | – | –
